# Test results published in patent US7868026B2, “Therapeutic compounds” (Pfizer Inc., priority 2005, dated 2011).
# Read-outs that look alike come from different tables or passages of the source.
# Key:
# Format in all cases: biochemical
# [1] = target: T1, CYP3A4 (Homo sapiens, UniProt P08684); assay: Determination of compound Kiapp against recombinant CYP3A4 enzyme (BFC fluorescent substrate)
# How it was run: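 Recombinant CYP3A4 (5.5 or 8 nM, with or without b5 depending on source) pre-incubated with inhibitor ≥30 min at room temperature in 100 mM sodium phosphate pH 7.0, 5 mM TCEP, 2% DMF. Reaction started with 200 uM NADPH and 5 uM BFC; initial fluorescence rates over 5 min fitted to Morrison tight-binding (non-partial) or Szedlacsek (partial) equations for Kiapp.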
# [2] = target: T1, CYP3A4; assay: Determination of IC50 against CYP3A4 by measurement of inhibition of testosterone metabolism (human liver microsomes, 6-β-OH-testosterone by LC-MS/MS); set-up: 0.1 mg/mL human liver microsomes; details: read-out: IC50 (Testo.)
# How it was run: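 Human liver microsomes (0.1 mg/mL) incubated with 25 μM testosterone and 1 mM NADPH in 100 mM potassium phosphate, pH 7.4, for eight minutes. 6-β-OH-testosterone measured by LC-MS/MS in MRM mode against an internal standard and quantified from a metabolite standard curve.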
# [3] = target: T1, CYP3A4; assay: Determination of IC50 against CYP3A4 by measurement of inhibition of midazolam metabolism (human liver microsomes, 1-hydroxymidazolam by LC-MS/MS); set-up: 0.1 mg/mL human liver microsomes; details: 2 μM midazolam, 0.1 mg/mL human liver microsomes
# How it was run: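 Human liver microsomes (0.1 mg/mL) incubated 8 min with 2 μM midazolam and 1 mM NADPH in 100 mM potassium phosphate, pH 7.4. 1-Hydroxymidazolam quantified by LC-MS/MS (MRM) as peak area ratio to internal standard against a metabolite standard curve.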
# [4] = Baculo. enzyme preparation, read-out: Kiapp (BFC, Baculo.)
# [5] = Super. enzyme preparation, read-out: Kiapp (BFC, Super.)
# T1 sequence (P08684 whole entry): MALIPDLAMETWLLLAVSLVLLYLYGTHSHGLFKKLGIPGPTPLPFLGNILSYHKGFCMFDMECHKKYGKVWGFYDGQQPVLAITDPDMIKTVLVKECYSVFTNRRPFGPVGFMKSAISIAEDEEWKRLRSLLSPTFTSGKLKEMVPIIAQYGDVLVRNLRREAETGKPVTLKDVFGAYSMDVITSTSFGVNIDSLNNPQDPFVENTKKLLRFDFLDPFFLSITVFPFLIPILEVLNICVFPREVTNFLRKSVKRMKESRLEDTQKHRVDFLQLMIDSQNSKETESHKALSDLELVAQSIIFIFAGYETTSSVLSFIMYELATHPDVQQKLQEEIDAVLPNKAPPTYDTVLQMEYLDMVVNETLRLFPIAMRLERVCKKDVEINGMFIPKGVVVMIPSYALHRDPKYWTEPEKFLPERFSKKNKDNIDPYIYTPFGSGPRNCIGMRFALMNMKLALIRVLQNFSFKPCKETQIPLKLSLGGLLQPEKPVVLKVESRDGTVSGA
Structure (SMILES),"Ki [1, 4]","Ki [1, 5]",IC50 [2],IC50 [3]
"COc1cncc(NS(=O)(=O)c2ccccc2C(=O)NC2C3CC4CC(C3)CC2C4)c1 (stereo not shown) [Example 201, N-2-adamantyl-2-{[(5-methoxypyridin-3-yl)amino]sulfonyl}benzamide]",29.3 nM,8 nM,16 nM,9 nM
"COc1cncc(NS(=O)(=O)c2ccccc2C(=O)NC2CCCC(C)C2)c1 (stereo not shown) [Example 202, 2-{[(5-methoxypyridin-3-yl)amino]sulfonyl}-N-(3-methylcyclohexyl)benzamide]",84.2 nM,33.4 nM,7 nM,< 3 nM
"COc1cncc(NS(=O)(=O)c2ccccc2C(=O)N[C@@H](C)C(C)(C)C)c1 [Example 210, 2-{[(5-methoxypyridin-3-yl)amino]sulfonyl}-N-[(1S)-122-trimethylpropyl]benzamide]",286 nM,39.6 nM,49 nM,10 nM
"COc1cncc(NS(=O)(=O)c2ccccc2C(=O)NC(C(C)C)C(C)C)c1 [Example 211, N-(1-isopropyl-2-methylpropyl)-2-{[(5-methoxypyridin-3-yl)amino]sulfonyl}benzamide]",33.6 nM,7.9 nM,19 nM,4 nM
"COc1cncc(NS(=O)(=O)c2ccccc2C(=O)NC2CCCC2)c1 [Example 214, N-cyclopentyl-2-{[(5-methoxypyridin-3-yl)amino]sulfonyl}benzamide]",355 nM,47.3 nM,66 nM,14 nM
"COc1cncc(NS(=O)(=O)c2ccccc2C(=O)NC2CC3CCC2C3)c1 (stereo not shown) [Example 215, N-bicyclo[2.2.1]hept-2-yl-2-{[(5-methoxypyridin-3-yl)amino]sulfonyl}benzamide]",216 nM,43.3 nM,58 nM,25 nM
"CCOc1ccncc1NS(=O)(=O)c1ccccc1C(=O)NCCOC [Example 217, 2-{[(4-ethoxypyridin-3-yl)amino]sulfonyl}-N-(2-methoxyethyl)benzamide]",965 nM,216 nM,230 nM,179 nM
"CCOCCNC(=O)c1ccccc1S(=O)(=O)Nc1cnccc1OCC [Example 218, N-(2-ethoxyethyl)-2-{[(4-ethoxypyridin-3-yl)amino]sulfonyl}benzamide]",748 nM,146 nM,189 nM,96 nM
CCOc1ccncc1NS(=O)(=O)c1ccccc1C(=O)NCCOc1ccccc1 [Example 219],108 nM,40.3 nM,32 nM,27 nM
"COc1ccncc1NS(=O)(=O)c1ccccc1C(=O)NCCc1ccccc1Cl [Example 220, N-[2-(2-chlorophenyl)ethyl]-2-{[(4-methoxypyridin-3-yl)amino]sulfonyl}benzamide]",13.7 nM,9.1 nM,11 nM,6 nM
"COc1ccncc1NS(=O)(=O)c1ccccc1C(=O)NCCc1ccccc1OC(F)(F)F [Example 221, 2-{[(4-methoxypyridin-3-yl)amino]sulfonyl}-N-{2-[2-(trifluoromethoxy)phenyl]ethyl} benzamide]",16 nM,8.9 nM,12 nM,11 nM
COc1ccncc1NS(=O)(=O)c1ccccc1C(=O)NCCc1ccccc1F [Example 222],207 nM,12.7 nM,34 nM,15 nM
"CCOCCNC(=O)c1ccccc1S(=O)(=O)Nc1cnccc1OC [Example 223, N-(2-ethoxyethyl)-2-{[(4-methoxypyridin-3-yl)amino]sulfonyl}benzamide]",> 1000 nM,326 nM,745 nM,260 nM
"COc1ccncc1NS(=O)(=O)c1ccccc1C(=O)NCCOc1ccccc1 [Example 224, 2-{[(4-methoxypyridin-3-yl)amino]sulfonyl}-N-(2-phenoxyethyl)benzamide]",399 nM,56.8 nM,56 nM,29 nM
"Cc1cncc(NS(=O)(=O)c2ccccc2C(=O)NCCc2ccccc2OC(F)(F)F)c1 [Example 225, 2-{[(5-methylpyridin-3-yl)amino]sulfonyl}-N-{2-[2-(trifluoromethoxy)phenyl]ethyl}benzamide]",15.7 nM,1.7 nM,9 nM,7 nM

# Continued, values first:
"Ki [1, 4]","Ki [1, 5]",IC50 [2],IC50 [3],Structure (SMILES)
69.5 nM,20.1 nM,18 nM,4 nM,"COc1cncc(NS(=O)(=O)c2ccccc2C(=O)NCCc2cc(F)ccc2F)c1 [Example 197, N-[2-(2,5-difluorophenyl)ethyl]-2-{[(5-methoxypyridin-3-yl)amino]sulfonyl}benzamide]"
41.7 nM,16.6 nM,10 nM,< 3 nM,"COc1cncc(NS(=O)(=O)c2ccccc2C(=O)N(C)Cc2ccccc2F)c1 [Example 198, N-(2-fluorobenzyl)-2-{[(5-methoxypyridin-3-yl)amino]sulfonyl}-N-methylbenzamide]"
12.7 nM,10.5 nM,11 nM,6 nM,"COc1cncc(NS(=O)(=O)c2ccccc2C(=O)NC(CO)Cc2ccc(Cl)cc2)c1 (stereo not shown) [Example 199, N-[1-(4-chlorobenzyl)-2-hydroxyethyl]-2-{[(5-methoxypyridin-3-yl)amino]sulfonyl}benzamide]"
36.1 nM,9.9 nM,21 nM,12 nM,"COc1cncc(NS(=O)(=O)c2ccccc2C(=O)NCC2CCCCC2)c1 [Example 200, N-(cyclohexylmethyl)-2-{[(5-methoxypyridin-3-yl)amino]sulfonyl}benzamide]"
101 nM,25.8 nM,12 nM,5 nM,"COc1cncc(NS(=O)(=O)c2ccccc2C(=O)NCc2ccc(C#N)cc2Cl)c1 [Example 203, N-(2-chloro-4-cyanobenzyl)-2-{[(5-methoxypyridin-3-yl)amino]sulfonyl}benzamide]"
52.5 nM,12.6 nM,12 nM,< 3 nM,"COc1cncc(NS(=O)(=O)c2ccccc2C(=O)NC(C)CC(C)C)c1 (stereo not shown) [Example 204, N-(1,3-dimethylbutyl)-2-{[(5-methoxypyridin-3-yl)amino]sulfonyl}benzamide]"
206 nM,41.9 nM,27 nM,< 15.5 nM,"CCC(C)NC(=O)c1ccccc1S(=O)(=O)Nc1cncc(OC)c1 (stereo not shown) [Example 205, N-(sec-butyl)-2-{[(5-methoxypyridin-3-yl)amino]sulfonyl}benzamide]"
3.6 nM,2.9 nM,6 nM,< 3 nM,"COc1cncc(NS(=O)(=O)c2ccccc2C(=O)NCc2cccc(Cl)c2C)c1 [Example 206, N-(3-chloro-2-methylbenzyl)-2-{[(5-methoxypyridin-3-yl)amino]sulfonyl}benzamide]"
105 nM,19.1 nM,24 nM,5 nM,"COc1cncc(NS(=O)(=O)c2ccccc2C(=O)NCc2c(F)cccc2F)c1 [Example 207, N-(2,6-difluorobenzyl)-2-{[(5-methoxypyridin-3-yl)amino]sulfonyl}benzamide]"
57.3 nM,16.1 nM,19 nM,9.5 nM,"CCC(C)CNC(=O)c1ccccc1S(=O)(=O)Nc1cncc(OC)c1 (stereo not shown) [Example 208, 2-{[(5-methoxypyridin-3-yl)amino]sulfonyl}-N-(2-methylbutyl)benzamide]"
18.2 nM,6.1 nM,5 nM,4 nM,"COc1cncc(NS(=O)(=O)c2ccccc2C(=O)NCCC2CCCC2)c1 [Example 209, N-(2-cyclopentylethyl)-2-{[(5-methoxypyridin-3-yl)amino]sulfonyl}benzamide]"
20.3 nM,6 nM,8 nM,< 3 nM,"COc1cncc(NS(=O)(=O)c2ccccc2C(=O)NCc2ccc(F)cc2F)c1 [Example 212, N-(2,4-difluorobenzyl)-2-{[(5-methoxypyridin-3-yl)amino]sulfonyl}benzamide]"
27.2 nM,9.8 nM,13 nM,< 3 nM,"COc1cncc(NS(=O)(=O)c2ccccc2C(=O)NCc2c(F)cccc2Cl)c1 [Example 213, N-(2-chloro-6-fluorobenzyl)-2-{[(5-methoxypyridin-3-yl)amino]sulfonyl}benzamide]"
6.9 nM,3.5 nM,7 nM,5 nM,COc1cncc(NS(=O)(=O)c2ccccc2C(=O)NCc2ccc(Cl)cc2C)c1 [Example 216]
16.4 nM,2.6 nM,8 nM,< 3 nM,"Cc1cncc(NS(=O)(=O)c2ccccc2C(=O)NCCc2ccccc2Cl)c1 [Example 226, N-[2-(2-chlorophenyl)ethyl]-2-{[(5-methylpyridin-3-yl)amino]sulfonyl}benzamide]"
86.8 nM,8.6 nM,11 nM,5 nM,"Cc1cncc(NS(=O)(=O)c2ccccc2C(=O)NCCc2ccccc2F)c1 [Example 227, N-[2-(2-fluorophenyl)ethyl]-2-{[(5-methylpyridin-3-yl)amino]sulfonyl}benzamide]"
